The source of these data is ChEMBL document CHEMBL1146910, “Selectively guanidinylated derivatives of neamine. Syntheses and inhibition of anthrax lethal factor protease” (Bioorg Med Chem Lett, 2006).

Holding throughout (settings): read-out: Ki app
In one test the target is T1, Lethal factor (Bacillus anthracis, UniProt P15917).
T1 sequence (P15917 whole entry): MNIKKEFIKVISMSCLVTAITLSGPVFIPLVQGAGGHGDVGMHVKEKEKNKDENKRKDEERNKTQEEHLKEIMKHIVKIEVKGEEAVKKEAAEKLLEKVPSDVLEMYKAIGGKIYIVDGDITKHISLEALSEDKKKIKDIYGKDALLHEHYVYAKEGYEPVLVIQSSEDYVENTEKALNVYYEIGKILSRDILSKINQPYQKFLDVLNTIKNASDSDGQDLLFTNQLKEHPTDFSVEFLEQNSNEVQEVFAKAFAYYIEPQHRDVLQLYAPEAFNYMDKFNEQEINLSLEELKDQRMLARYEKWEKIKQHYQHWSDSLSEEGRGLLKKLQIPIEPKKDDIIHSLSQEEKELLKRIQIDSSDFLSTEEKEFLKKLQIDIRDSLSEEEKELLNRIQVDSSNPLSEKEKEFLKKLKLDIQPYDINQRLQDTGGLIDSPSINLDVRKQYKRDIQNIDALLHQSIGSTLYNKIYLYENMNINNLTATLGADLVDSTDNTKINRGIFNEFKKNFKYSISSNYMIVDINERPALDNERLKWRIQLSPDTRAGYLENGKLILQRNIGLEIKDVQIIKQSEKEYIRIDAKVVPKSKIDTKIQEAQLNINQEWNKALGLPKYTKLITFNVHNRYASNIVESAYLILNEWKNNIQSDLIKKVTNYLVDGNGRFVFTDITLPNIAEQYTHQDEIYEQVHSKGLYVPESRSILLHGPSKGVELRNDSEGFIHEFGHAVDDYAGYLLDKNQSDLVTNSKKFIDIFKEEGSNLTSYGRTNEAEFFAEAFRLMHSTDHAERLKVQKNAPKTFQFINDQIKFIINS

The target of a further test is T2, Interstitial collagenase (Homo sapiens, UniProt P03956).
T2 sequence (P03956 whole entry): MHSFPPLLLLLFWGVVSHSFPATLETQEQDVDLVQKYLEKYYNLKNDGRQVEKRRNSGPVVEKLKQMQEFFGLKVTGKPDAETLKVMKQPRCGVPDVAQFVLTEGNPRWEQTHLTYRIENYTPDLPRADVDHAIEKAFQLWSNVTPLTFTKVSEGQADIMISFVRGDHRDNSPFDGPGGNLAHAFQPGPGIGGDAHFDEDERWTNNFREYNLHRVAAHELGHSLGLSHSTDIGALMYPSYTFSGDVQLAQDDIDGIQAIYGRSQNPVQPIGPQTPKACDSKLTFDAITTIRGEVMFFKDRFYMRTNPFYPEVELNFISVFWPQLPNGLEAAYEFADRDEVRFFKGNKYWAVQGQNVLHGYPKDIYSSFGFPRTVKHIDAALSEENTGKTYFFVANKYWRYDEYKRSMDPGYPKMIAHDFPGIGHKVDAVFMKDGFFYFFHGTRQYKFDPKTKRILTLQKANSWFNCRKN
The test is described as follows: Activity at MMP1.

The next test has as its target Stromelysin-1 (Homo sapiens, UniProt P08254). Briefly: Activity at MMP3.
Test [1] concerns the target Macrophage metalloelastase (Homo sapiens, UniProt P39900). Briefly: Activity at MMP12.
In test [2] the target is Matrix metalloproteinase-9 (Homo sapiens, UniProt P14780). Briefly: Activity at MMP9.
Sequence of Matrix metalloproteinase-9 (P14780 whole entry): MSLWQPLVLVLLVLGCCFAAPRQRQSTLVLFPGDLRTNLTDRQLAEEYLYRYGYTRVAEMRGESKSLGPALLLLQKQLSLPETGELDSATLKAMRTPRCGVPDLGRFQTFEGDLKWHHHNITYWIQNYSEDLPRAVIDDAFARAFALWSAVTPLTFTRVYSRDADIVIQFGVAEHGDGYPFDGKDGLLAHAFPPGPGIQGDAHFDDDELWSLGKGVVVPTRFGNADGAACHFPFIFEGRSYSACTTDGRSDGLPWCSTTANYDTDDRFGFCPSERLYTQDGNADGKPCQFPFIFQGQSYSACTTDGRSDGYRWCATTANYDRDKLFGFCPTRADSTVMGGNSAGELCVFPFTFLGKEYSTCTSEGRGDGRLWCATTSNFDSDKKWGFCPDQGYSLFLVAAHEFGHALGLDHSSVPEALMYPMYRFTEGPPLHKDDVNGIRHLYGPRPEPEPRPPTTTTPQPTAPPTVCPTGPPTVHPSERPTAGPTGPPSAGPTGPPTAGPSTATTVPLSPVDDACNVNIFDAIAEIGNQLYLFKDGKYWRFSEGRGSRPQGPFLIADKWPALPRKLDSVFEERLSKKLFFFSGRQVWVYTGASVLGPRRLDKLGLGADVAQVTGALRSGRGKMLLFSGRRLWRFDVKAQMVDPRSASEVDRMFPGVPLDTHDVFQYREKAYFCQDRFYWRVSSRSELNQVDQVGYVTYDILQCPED
In test [3] the target is Matrix metalloproteinase-14 (Homo sapiens, UniProt P50281). Briefly: Activity at MMP14.

Sequence of Macrophage metalloelastase (P39900 whole entry): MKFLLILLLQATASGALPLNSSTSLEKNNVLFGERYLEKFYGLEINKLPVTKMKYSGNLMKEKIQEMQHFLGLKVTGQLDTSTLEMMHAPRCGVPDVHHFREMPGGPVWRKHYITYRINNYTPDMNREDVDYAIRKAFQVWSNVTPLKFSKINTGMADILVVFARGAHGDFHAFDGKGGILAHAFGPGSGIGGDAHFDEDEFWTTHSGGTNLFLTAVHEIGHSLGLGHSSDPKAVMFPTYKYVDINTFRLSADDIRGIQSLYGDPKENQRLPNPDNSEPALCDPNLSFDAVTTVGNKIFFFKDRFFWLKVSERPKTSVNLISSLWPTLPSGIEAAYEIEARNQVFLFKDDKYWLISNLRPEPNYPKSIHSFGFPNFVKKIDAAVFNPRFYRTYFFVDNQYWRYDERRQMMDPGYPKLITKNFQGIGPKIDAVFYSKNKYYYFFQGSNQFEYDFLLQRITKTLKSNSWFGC
Sequence of Stromelysin-1 (P08254 whole entry): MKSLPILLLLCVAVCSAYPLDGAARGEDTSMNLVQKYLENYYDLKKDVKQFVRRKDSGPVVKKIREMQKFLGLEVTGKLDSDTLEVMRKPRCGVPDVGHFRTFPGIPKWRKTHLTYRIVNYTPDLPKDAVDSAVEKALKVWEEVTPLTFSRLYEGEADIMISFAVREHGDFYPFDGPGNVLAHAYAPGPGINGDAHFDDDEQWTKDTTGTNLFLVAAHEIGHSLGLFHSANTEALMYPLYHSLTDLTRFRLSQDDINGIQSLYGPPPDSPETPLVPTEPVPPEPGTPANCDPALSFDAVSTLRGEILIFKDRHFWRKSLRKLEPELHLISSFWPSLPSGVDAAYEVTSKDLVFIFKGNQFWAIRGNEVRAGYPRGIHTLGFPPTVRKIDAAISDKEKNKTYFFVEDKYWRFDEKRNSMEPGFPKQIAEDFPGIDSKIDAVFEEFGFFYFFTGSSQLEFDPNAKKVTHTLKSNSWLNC

In the case of `NC(N)=NC[C@H]1O[C@H](O[C@H]2[C@H](O)[C@@H](O)[C@H](N=C(N)N)C[C@@H]2N)[C@H](N)[C@@H](O)[C@@H]1O`, the Ki at Lethal factor came out at 10.2 µM.
For the molecule `NC[C@H]1O[C@H](O[C@H]2[C@H](O)[C@@H](O)[C@H](N=C(N)N)C[C@@H]2N=C(N)N)[C@H](N)[C@@H](O)[C@@H]1O`, the Ki on Lethal factor is 5.6 µM.
Still for that read-out and setting: in the case of `NC[C@H]1O[C@H](O[C@H]2[C@H](O)[C@@H](O)[C@H](N=C(N)N)C[C@@H]2N)[C@H](N=C(N)N)[C@@H](O)[C@@H]1O` it was 5.3 µM; in that of `NC(N)=NC[C@H]1O[C@H](O[C@H]2[C@H](O)[C@@H](O)[C@H](N)C[C@@H]2N)[C@H](N=C(N)N)[C@@H](O)[C@@H]1O`, 7.7 µM.
Still for that read-out and setting: in the case of `NC[C@H]1O[C@H](O[C@H]2[C@H](O)[C@@H](O)[C@H](N)C[C@@H]2N=C(N)N)[C@H](N)[C@@H](O)[C@@H]1O` it was 5.2 µM.
With `NC[C@H]1O[C@H](O[C@H]2[C@H](O)[C@@H](O)[C@H](N)C[C@@H]2N=C(N)N)[C@H](N=C(N)N)[C@@H](O)[C@@H]1O`, the Ki on Interstitial collagenase was more than 300 µM; on Stromelysin-1, more than 300 µM; in test [1] it was more than 300 µM; at Lethal factor it was 0.7 µM; in test [2], more than 300 µM; in test [3] it was more than 300 µM.
As for `N=C(N)NC[C@H]1O[C@H](O[C@H]2[C@H](O)[C@@H](O)[C@H](NC(=N)N)C[C@@H]2NC(=N)N)[C@H](NC(=N)N)[C@@H](O)[C@@H]1O`, the Ki at Interstitial collagenase is more than 300 µM; on Stromelysin-1, more than 300 µM; in test [1], more than 300 µM; at Lethal factor, 0.7 µM; in test [2], more than 300 µM; in test [3] it was more than 300 µM.
On to `CO[C@@H]1[C@@H](OC)[C@H](N=C(N)N)C[C@H](N=C(N)N)[C@H]1O[C@H]1O[C@H](CN=C(N)N)[C@@H](OC)[C@H](OC)[C@H]1N=C(N)N`, for which the Ki on Interstitial collagenase was more than 300 µM; at Stromelysin-1 it was more than 300 µM; in test [1], more than 300 µM; at Lethal factor, 1.5 µM; in test [2], more than 300 µM; in test [3] it was more than 300 µM.
Consider `NC(N)=NC[C@H]1O[C@H](O[C@H]2[C@H](O)[C@@H](O)[C@H](N)C[C@@H]2N=C(N)N)[C@H](N=C(N)N)[C@@H](O)[C@@H]1O`, for which the Ki at Lethal factor was 9.2 µM.
For `NC(N)=NC[C@H]1O[C@H](O[C@H]2[C@H](O)[C@@H](O)[C@H](N=C(N)N)C[C@@H]2N)[C@H](N=C(N)N)[C@@H](O)[C@@H]1O`, the Ki at Lethal factor worked out at 3.1 µM.
On the same count and under the same terms, as for `NC(N)=NC[C@H]1O[C@H](O[C@H]2[C@H](O)[C@@H](O)[C@H](N)C[C@@H]2N)[C@H](N)[C@@H](O)[C@@H]1O`, the figure is 24.3 µM; as for `NC(N)=NC[C@H]1O[C@H](O[C@H]2[C@H](O)[C@@H](O)[C@H](N=C(N)N)C[C@@H]2N=C(N)N)[C@H](N)[C@@H](O)[C@@H]1O`, 8.7 µM.
Regarding `NC(N)=NC[C@H]1O[C@H](O[C@H]2[C@H](O)[C@@H](O)[C@H](N)C[C@@H]2N=C(N)N)[C@H](N)[C@@H](O)[C@@H]1O`, the Ki on Lethal factor came out at 8.8 µM.
Take `NC[C@H]1O[C@H](O[C@H]2[C@H](O)[C@@H](O)[C@H](N=C(N)N)C[C@@H]2N)[C@H](N)[C@@H](O)[C@@H]1O`: the Ki on Lethal factor came out at 5 µM.
Turning to `NC[C@H]1O[C@H](O[C@H]2[C@H](O)[C@@H](O)[C@H](N)C[C@@H]2N)[C@H](N=C(N)N)[C@@H](O)[C@@H]1O`, the Ki on Lethal factor is 10.9 µM.
On to `NC[C@H]1O[C@H](O[C@H]2[C@H](O)[C@@H](O)[C@H](N=C(N)N)C[C@@H]2N=C(N)N)[C@H](N=C(N)N)[C@@H](O)[C@@H]1O`, for which the Ki at Interstitial collagenase is more than 300 µM; on Stromelysin-1, more than 300 µM; in test [1] it was more than 300 µM; at Lethal factor it was 0.5 µM; in test [2], more than 300 µM; in test [3], more than 300 µM.
